Assay results published in patent US20240400572A1, “COMPOUNDS AND METHODS FOR TREATING CANCERS THAT ARE MGMT DEFICIENT REGARDLESS OF MMR STATUS” (Yale University, priority 2021, published 2024).

How the values were obtained:
LN229 MGMT+ MMR+ cells = assay: Anticancer activity towards LN229 human brain glioblastoma cells (nuclei count after 120 hours); type: cell-based; details: LN-229, LN229 quad cells, 200 μM to 0.1 uM
Experimental: (§1) Exemplary compounds were evaluated for activity against LN229 human brain glioblastoma cells. Experimental procedures and results are provided elsewhere herein.
(§2) LN229 quad cells were maintained in Dulbecco's Modified Eagle Medium (DMEM) supplemented with 10% fetal bovine serum. Cells were plated into sterile black with glass bottom 384-well plates (Cellvis) at a concentration of 1,000 cells/well (20 μL total volume) using a MultiDrop (Thermo Fisher). Then, assay plates were centrifuged at 300 rpm for 2 seconds and incubated overnight in a 37° C. 5% CO2 incubator. Compounds were prepared as 100 mM stocks in DMSO and stored protected from light at −20′C until use. Prior to compound addition, the stock solutions of compound were diluted two-fold serially in DMSO from 100 mM down to 0.05 mM in a 384-well Source plate. Vehicle control wells containing DMSO and positive control wells containing 10 mM bortezomib were also added to the Source plate. An aliquot in the amount of 40 nL of compound stock solution or DMSO vehicle was transferred from the source plate to the cell assay plate using an Echo Acoustic dispense (Beckman). Three replicate dilution curves of each compound were run on each assay plate. An aliquot in the amount of 120 nL of a 10 mM bortezomib solution was transferred to the positive control wells resulting in a final concentration of 60 μM. The final concentration of compounds ranged from 200 μM to 0.1 uM (12-point, 2-fold dilution dose response curve), and the final DMSO concentration was 0.2%.
(§3) Assay plates were centrifuged at 500 rpm for 2 seconds and incubated for 120 hours at 37° C. in a humidified 5% CO2 incubator. Following incubation, cells were fixed with 4% paraformaldehyde and stained with DAPI for nuclei visualization. The images were acquired on the InCell 2200 high content imager (GE, now […]), and quantified using InCell Analyzer image analysis software. Z prime factor, signal-to-background and coefficient of variation were calculated for each assays plate using mean and standard deviation values of the negative (vehicle) and positive (bortezomib) control wells to ensure assay robustness. Raw cell count data for test compounds was normalized to percent viability relative to the DMSO vehicle control. Data was plotted in GraphPad Prism using a variable slope 4-parameter fit.

LN229 MGMT+ MMR− cells = assay: as above; type: cell-based; details: LN-229, LN229 quad cells, 200 μM to 0.1 uM
Experimental: as §1, §2, §3

LN229 MGMT− MMR+ cells = assay: as above; type: cell-based; details: LN-229, LN229 quad cells, 200 μM to 0.1 uM
Experimental: as §1, §2, §3

LN229 MGMT− MMR− cells = assay: as above; type: cell-based; details: LN-229, LN229 quad cells, 200 μM to 0.1 uM
Experimental: as §1, §2, §3

[1] = tested on: LN229 MGMT−/MMR− intracranial tumors; assay: Anti-cancer activity in mice having tumors formed from LN-229 human brain glioblastoma cells; type: in vivo, mouse; details: 25 mg/kg PO for 5 days; compared with vehicle, TMZ, or KL50
Experimental: Mice bearing tumors formed from LN-229 human brain glioblastoma cells were prepared as follows: LN229 MGMT−/MMR− cells stably expressing firefly luciferase (lentivirus-plasmids from Cellomics Technology; PLV-10003) were injected intracranially into mice using a stereotactic injector. For this procedure, 1.5 million LN229 MGMT−/MMR− cells in 5 μl PBS were injected into the brain of the mice subjects, and then the mice were imaged weekly using the IVIS Spectrum In Vivo Imaging System (PerkinElmer) according to the manufacturer's protocol. Images were taken on a weekly basis and acquired 10 min post intraperitoneal injection with d-luciferin (150 mg/kg of animal mass). Tumors were allowed to grow to an average of 1.0×10^8 RLU before randomization of the mice.
Treatments using study compounds were administered PO (oral gavage), with 10% cyclodextrin vehicle control or study compound, according to the indicated treatment regimen. Animals were observed daily, with weekly tumor imaging and body weight measurements. Quantification of BLI flux (photons/sec) was made through the identification of a region of interest (ROI) for each tumor.
Study compounds were administered to mice at a dose of 25 mg/kg PO for 5 days; thereafter no further study compound was administered to the mice.
Statistical analysis of data was performed using GraphPad Prism software. Data was presented as mean±SEM. […]

[2] = tested on: linearized pUC19 plasmid DNA; assay: Melting temperature assay; type: biochemical; details: 100 or 500 μM for 3 h
Experimental: Melting Temperature Assay. Linearized pUC19 DNA (750 ng), prepared as described above, was incubated with the indicated concentration of either MMS or KL-50 (4a) adjusted in a final volume of 18 μL in 100 mM Tris buffer (pH 7.4) for 3 h. Drug stock concentrations were made in DMSO such that each reaction contained a fixed 5% DMSO concentration. Afterwards, 1 μL each of 20× SYBR Green dye (Invitrogen) and 20× ROX reference dye (Invitrogen) was added and melting temperature analysis was run on a StepOnePlus RT PCR System (Applied Biosciences) to generate melting temperature curves.

SMILES: CNC(=O)c1ncn2c(=O)n(CCF)nnc12 [Compound I-1, 3-(2-fluoroethyl)-N-methyl-4-oxo-3H,4H-imidazo[4,3-d][1,2,3,5]tetrazine-8-carboxamide]
- IC50 (LN229 MGMT+ MMR+ cells): > 80 µM
- IC50 (LN229 MGMT+ MMR− cells): > 80 µM
- IC50 (LN229 MGMT− MMR+ cells): 10 to 20 µM
- IC50 (LN229 MGMT− MMR− cells): < 10 µM
- duration of survival (in words) [1]: longer duration of survival

SMILES: NC(=O)c1ncn2c(=O)n(CCF)nnc12 [KL-50, 3-(2-fluoroethyl)-4-oxo-3H,4H-imidazo[4,3-d][1,2,3,5]tetrazine-8-carboxamide]
- change in DNA melting temperature (in words) [2]: comparable changes in measured DNA melting temperature
